Read-outs that look alike come from different tables or passages of the source.
Experiments:
[1] = In vitro cytotoxicity with L-6 cells; type: cell-based, rat
Method: (§1) Compounds were tested for their activities against strains of P. falciparum and T. b. rhodesiense via microplate assays. Their cytotoxicity was determined with rat skeletal myoblasts (L-6 cells). Chloroquine and melarsoprol served as standards (Table 1).
Assays were performed in 96-well microtiter plates, each well containing 0.1 mL of RPMI 1640 medium supplemented with 1% L-glutamine (200 mM) and 10% fetal bovine serum and 4000 L-6 cells (a primary cell line derived from rat skeletal myoblasts, ATCC CRL-1458™). Serial drug dilutions of 11 three-fold dilution steps covering a range from 100 to 0.002 μg/mL were prepared. After 70 h of incubation, the plates were inspected under an inverted microscope to assure the growth of the controls and sterile conditions. Then, 0.01 mL resazurin solution (resazurin, 12.5 mg in 100 ml double-distilled water) was added to each well and the plates incubated for another 2 h. The plates were read with a Spectramax Gemini XS microplate fluorometer (Molecular Devices Cooperation, Sunnyvale, CA, USA) using an excitation wavelength of 536 nm and an emission wavelength of 588 nm. The IC50 values were calculated by linear regression from the sigmoidal dose inhibition curves using SoftmaxPro software (Molecular Devices Cooperation, Sunnyvale, CA, USA). Podophyllotoxin (Sigma P4405) was used as control.

[2] = test system: T. b. rhodesiense STIB 900; assay: In vitro microplate resazurin assay against T. brucei rhodesiense; type: cell-based, Trypanosoma brucei rhodesiense; details: for S.I. = IC50 (Cyt.)/IC50 (T.b.r.): L-6 cytotoxicity over T.b.r.; for IC50: Trypanosoma brucei, read-out: T. Brucei Rhodesiense IC50
Method: as §1
Minimum essential medium (50 µL) supplemented with 25 mM HEPES, 1 g/L additional glucose, 1% MEM nonessential amino acids (100×), 0.2 mM 2-mercaptoethanol, 1 mM Na-pyruvate and 15% heat inactivated horse serum was added to each well of a 96-well microtiter plate. Serial drug dilutions of 11 three-fold dilution steps covering a range from 100 to 0.002 μg/mL were prepared. Then, 4 × 10^3 bloodstream forms of T. b. rhodesiense STIB 900 in 50 µL was added to each well and the plate incubated at 37 °C under a 5% CO2 atmosphere for 70 h. Ten microliters of resazurin solution (resazurin, 12.5 mg in 100 mL double-distilled water) was then added to each well and incubation continued for an additional 2–4 h. The plates were then read with a Spectramax Gemini XS microplate fluorometer (Molecular Devices Cooperation, Sunnyvale, CA, USA) using an excitation wavelength of 536 nm and an emission wavelength of 588 nm. Data were analyzed with the graphic program Softmax Pro (Molecular Devices Cooperation, Sunnyvale, CA, USA), which calculated IC50 values by linear regression and 4-parameter logistic regression from the sigmoidal dose inhibition curves. Melarsoprol (Arsobal Sanofi-Aventis, received from WHO) was used as control.

P. falciparum NF54 = assay: In vitro microplate 3H-hypoxanthine incorporation assay against P. falciparum NF54; type: cell-based, Plasmodium falciparum; details: for S.I. = IC50 (Cyt.)/IC50 (P.f. NF54): L-6 cytotoxicity over P.f. NF54; for IC50: Plasmodium falciparum, NF54 strain sensitive to chloroquine and pyrimethamine, erythrocytic stages, average of four determinations, read-out: P. Falciparum NF54 IC50
Method: as §1
(§2) In vitro activity against erythrocytic stages of P. falciparum was determined using a ^3H-hypoxanthine incorporation assay, using the drug-sensitive NF54 strain [21] or the chloroquine- and pyrimethamine-resistant K1 strain [22]. Compounds were dissolved in DMSO at 10 mg/mL and added to parasite cultures incubated in RPMI 1640 medium without hypoxanthine, supplemented with HEPES (5.94 g/L), NaHCO3 (2.1 g/L), neomycin (100 U/mL), Albumax (5 g/L) and washed human red cells A+ at 2.5% hematocrit (0.3% parasitemia). Serial drug dilutions of 11 three-fold dilution steps covering a range from 100 to 0.002 µg/mL were prepared. The 96-well plates were incubated in a humidified atmosphere at 37 °C; 4% CO2, 3% O2, 93% N2. After 48 h, 0.05 mL of ^3H-hypoxanthine (=0.5 µCi) was added to each well of the plate. The plates were incubated for an additional 24 h under the same conditions. The plates were then harvested with a Betaplate cell harvester (Wallac, Zurich, Switzerland). The red blood cells were transferred onto a glass fiber filter and washed with distilled water. The dried filters were inserted into a plastic foil with 10 mL of scintillation fluid and counted in a Betaplate liquid scintillation counter (Wallac, Zurich, Switzerland). IC50 values were calculated from sigmoidal inhibition curves by linear regression using Microsoft Excel. Chloroquine (Sigma C6628) was used as control.

P. falciparum K1 = assay: In vitro microplate 3H-hypoxanthine incorporation assay against P. falciparum K1; type: cell-based, Plasmodium falciparum; details: for S.I. = IC50 (Cyt.)/IC50 (P.f. K1): L-6 cytotoxicity over P.f. K1; for IC50: Plasmodium falciparum, K1 strain resistant to chloroquine and pyrimethamine, average of four determinations, read-out: P. Falciparum K1 IC50
Method: as §1, §2

[3] = STIB 900 bloodstream forms, average of four determinations

Row | SMILES | IC50 at 72 h ([1]; rat) | S.I. = IC50 (Cyt.)/IC50 (T.b.r.) [2] | IC50 [2, 3] | S.I. = IC50 (Cyt.)/IC50 (P.f. NF54) (P. falciparum NF54) | IC50 (P. falciparum NF54) | S.I. = IC50 (Cyt.)/IC50 (P.f. K1) (P. falciparum K1) | IC50 (P. falciparum K1) | IC50 at 72 h ([1]; rat skeletal myoblasts, average of four determinations, read-out: Cytotox. L-6 Cells IC50) | IC50 [2]
1 | O=S(=O)(c1ccc(Cl)cc1)N1CCC2(N3CCCC3)C[C@H](c3ccccc3)C1[C@@H](c1ccccc1)C2 (racemic) [Compound 18, rac-(7R,8R)-2-(4-Chlorobenzenesulfonyl)-7,8-diphenyl-5-(pyrrolidin-1-yl)-2-azabicyclo[3.2.2]nonane] | 6290 nM | 5.28 | 1190 nM | 10.4 | 606 nM | – | – | – | –
2 | CN(C)C12CCN(CCN)C([C@@H](c3ccccc3)C1)[C@@H](c1ccccc1)C2 (racemic) [Compound 6, rac-(7R,8R)-2-[5-(Dimethylamino)-7,8-diphenyl-2-azabicyclo[3.2.2]nonan-2-yl]ethan-1-amine] | 21500 nM | 7.36 | 2920 nM | – | – | 59.7 | 360 nM | – | –
3 | CC(C)(C)C(NCCN1CC2[C@@H](c3ccccc3)CC(N3CCCCC3)(C[C@@H]2c2ccccc2)C1)c1nnnn1C(C)(C)C (mixture of isomers) [Compound 11B, rac-(1R)-1-(1-tert-Butyl-1H-tetrazol-5-yl)-2,2-dimethyl-N-{2-[(6S,9S)-6,9-diphenyl-1-(piperidin-1-yl)-3-azabicyclo[3.2.2]nonan-3-yl]ethyl}propan-1-amine] | 6590 nM | 1.34 | 4920 nM | 4.99 | 1320 nM | – | – | – | –
4 | Cc1ccc(S(=O)(=O)NCCN2CCC3(N4CCCC4)C[C@H](c4ccccc4)C2[C@@H](c2ccccc2)C3)cc1 (racemic) [Compound 20, rac-(7R,8R)-4-Methyl-N-{2-[7,8-diphenyl-5-(pyrrolidin-1-yl)-2-azabicyclo[3.2.2]nonan-2-yl]ethyl}benzenesulfonamide] | 7150 nM | 11.0 | 647 nM | 14.7 | 487 nM | – | – | – | –
5 | Cc1ccc([C@@H](NCCN2CC3C(c4ccccc4)CC(N4CCCCC4)(CC3c3ccccc3)C2)c2nnnn2C(C)(C)C)cc1 (mixture of isomers) [Compound 13A, rac-N-[(1R)-(1-tert-Butyl-1H-tetrazol-5-yl)(p-tolyl)methyl]-2-[(6R,9R)-6,9-diphenyl-1-(piperidin-1-yl)-3-azabicyclo[3.2.2]nonan-3-yl]ethan-1-amine] | 2550 nM | 7.75 | 329 nM | 5.72 | 446 nM | – | – | – | –
6 | NCCN1CC2[C@H](c3ccccc3)CC(N3CCCC3)(C[C@H]2c2ccccc2)C1 (racemic) [Compound 9, rac-(6R,9R)-2-[6,9-Diphenyl-1-(pyrrolidin-1-yl)-3-azabicyclo[3.2.2]nonan-3-yl]ethan-1-amine] | 9120 nM | 21.7 | 420 nM | – | – | 14.5 | 630 nM | – | –
7 | Cc1ccc(C(NCCN2CC3C(c4ccccc4)CC(N4CCCCC4)(CC3c3ccccc3)C2)c2nnnn2C(C)(C)C)cc1 (stereo in doubt) [Compound 13B, rac-N-[(1R)-(1-tert-butyl-1H-tetrazol-5-yl)(p-tolyl)methyl]-2-[(6S,9S)-6,9-diphenyl-1-(piperidin-1-yl)-3-azabicyclo[3.2.2]nonan-3-yl]ethan-1-amine] | 2060 nM | 2.06 | 1000 nM | 3.03 | 680 nM | – | – | – | –
8 | CC(C)(C)C(NCCN1CC2[C@H](c3ccccc3)CC(N3CCCCC3)(C[C@H]2c2ccccc2)C1)c1nnnn1C(C)(C)C (mixture of isomers) [Compound 11A, rac-(1R)-1-(1-tert-Butyl-1H-tetrazol-5-yl)-2,2-dimethyl-N-{2-[(6R,9R)-6,9-diphenyl-1-(piperidin-1-yl)-3-azabicyclo[3.2.2]nonan-3-yl]ethyl}propan-1-amine] | 20100 nM | 3.04 | 6610 nM | 6.75 | 2980 nM | – | – | – | –
9 | CC(C)(C)n1nnnc1CNCCN1CC2[C@H](c3ccccc3)CC(N3CCCCC3)(C[C@H]2c2ccccc2)C1 (racemic) [Compound 14, rac-(6R,9R)-N-[(1-tert-Butyl-1H-tetrazol-5-yl)methyl]-2-[6,9-diphenyl-1-(piperidin-1-yl)-3-azabicyclo[3.2.2]nonan-3-yl]ethan-1-amine] | 17000 nM | 14.17 | 1200 nM | 8.76 | 1940 nM | – | – | – | –
10 | CC(C)(C)n1nnnc1CN(CCN1CC2[C@H](c3ccccc3)CC(N3CCCCC3)(C[C@H]2c2ccccc2)C1)Cc1nnnn1C(C)(C)C (racemic) [Compound 15, rac-(6R,9R)-N,N-bis[(1-tert-Butyl-1H-tetrazol-5-yl)methyl]-2-[6,9-diphenyl-1-(piperidin-1-yl)-3-azabicyclo[3.2.2]nonan-3-yl]ethan-1-amine] | 4170 nM | 3.21 | 1300 nM | 5.62 | 742 nM | – | – | – | –
11 | CC(C)(C)n1nnnc1C(NCCN1CC2C(c3ccccc3)CC(N3CCCCC3)(CC2c2ccccc2)C1)c1ccccc1 (racemic) [Compound 12B, rac-N-[(1R)-1-tert-Butyl-1H-tetrazol-5-yl])(phenyl)methyl]-2-[(6S,9S)-6,9-diphenyl-1-(piperidin-1-yl)-3-azabicyclo[3.2.2]nonan-3-yl]ethan-1-amine] | 2560 nM | 1.68 | 1520 nM | 1.92 | 1330 nM | – | – | – | –
12 | Cc1ccc(S(=O)(=O)NCCN2CCC3(N4CCCCC4)C[C@H](c4ccccc4)C2[C@@H](c2ccccc2)C3)cc1 (racemic) [Compound 19, rac-(7R,8R)-4-Methyl-N-[2-(7,8-diphenyl-5-(piperidin-1-yl)-2-azabicyclo[3.2.2]nonan-2-yl)ethyl]benzenesulfonamide] | 10800 nM | 9.39 | 1150 nM | 18.7 | 577 nM | – | – | – | –
13 | Nc1nc(N)nc(Nc2ccc([As]3SCC(CO)S3)cc2)n1 (centres unmarked) [MEL, melarsoprol, reference compound] | – | 864 | – | – | – | – | – | 7780 nM | 9 nM
14 | CC(C)(C)n1nnnc1[C@H](NCCN1CC2C(c3ccccc3)CC(N3CCCCC3)(CC2c2ccccc2)C1)c1ccccc1 (mixture of isomers) [Compound 12A, rac-N-[(1R)-(1-tert-Butyl-1H-tetrazol-5-yl])(phenyl)methyl]-2-[(6R,9R)-6,9-diphenyl-1-(piperidin-1-yl)-3-azabicyclo[3.2.2]nonan-3-yl]ethan-1-amine] | 2830 nM | 1.29 | 2200 nM | 11.2 | 252 nM | – | – | – | –

— PMC9572860, “Antiprotozoal Activity of Azabicyclo-Nonanes Linked to Tetrazole or Sulfonamide Cores” (Molecules, 2022)
